This is an account of results in patent publication US20260034252A1, “FIBROBLAST ACTIVATION PROTEIN-TARGETED COMPOSITIONS AND METHODS OF USE THEREOF” (Ratio Therapeutics, Inc., priority 2022, published 2026).

The target in one experiment is T1, FAP (Homo sapiens (Human), UniProt Q12884). Kind of experiment: surface plasmon resonance assay. Format: binding. The following applies: read-out: affinity.
T1 sequence (Q12884 whole entry): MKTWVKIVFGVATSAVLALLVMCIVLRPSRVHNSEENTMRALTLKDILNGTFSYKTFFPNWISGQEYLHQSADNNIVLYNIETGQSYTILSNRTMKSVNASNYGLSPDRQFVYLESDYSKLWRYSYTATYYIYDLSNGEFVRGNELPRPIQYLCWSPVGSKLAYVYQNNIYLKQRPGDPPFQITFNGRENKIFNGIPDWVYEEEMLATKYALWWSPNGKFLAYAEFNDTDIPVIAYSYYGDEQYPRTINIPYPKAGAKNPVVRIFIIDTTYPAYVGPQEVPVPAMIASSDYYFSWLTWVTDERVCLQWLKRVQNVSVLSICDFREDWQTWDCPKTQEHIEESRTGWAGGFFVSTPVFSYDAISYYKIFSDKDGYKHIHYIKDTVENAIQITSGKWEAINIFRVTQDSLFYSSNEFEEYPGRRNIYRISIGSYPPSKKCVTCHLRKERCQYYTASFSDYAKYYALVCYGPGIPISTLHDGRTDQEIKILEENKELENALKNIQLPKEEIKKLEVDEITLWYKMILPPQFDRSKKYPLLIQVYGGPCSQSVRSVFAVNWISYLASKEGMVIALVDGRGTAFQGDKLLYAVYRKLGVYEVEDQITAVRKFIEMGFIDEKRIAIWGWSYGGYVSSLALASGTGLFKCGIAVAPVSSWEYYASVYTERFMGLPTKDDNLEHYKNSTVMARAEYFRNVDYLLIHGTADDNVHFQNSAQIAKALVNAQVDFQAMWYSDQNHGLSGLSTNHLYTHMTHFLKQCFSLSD
On to `CN(CCCN1CCN(C(=O)CN2CCN(CC(=O)O)CCN(CC(=O)O)CCN(CC(=O)O)CC2)CC1)c1ccc2nccc(C(=O)NCC(=O)N3CC(F)(F)C[C@H]3C#N)c2c1` [FAP-46], for which the Kd is 0.255 nM.

Another experiment addresses T1, FAP. Kind of experiment: FAP protease inhibition assay (FAM-labeled substrate peptide, microfluidic electrophoresis). Format: biochemical. The conditions noted are these: enzyme 0.5 nM, substrate peptide 1 uM, 15 minutes pre-incubation, three hours for human FAP. As to the method: Protease reactions were assembled in 384 well plates (Greiner) in a total volume of 20 uL as described below.
Recombinant proteins were pre-diluted in assay buffer comprising of 100 mM HEPES, pH 7.5, 0.1% BSA, 0.01% Triton X-100, 1 mM DTT, and dispensed into 384 well plate (10 uL per well). Test compounds were serially pre-diluted in DMSO and added to the assay wells by acoustic dispensing (Labcyte Echo 550). Control samples (0%-inhibition in the absence of inhibitor, DMSO only) and 100%-inhibition (in the absence of enzyme) were assembled in replicates of four and used to calculate the %-inhibition in the presence of compounds. Concentration of DMSO was equalized to 1% in all samples.
Compounds were pre-incubated with enzymes for 15 minutes. Human FAP was obtained from Enzo, catalogue number BML-SE409-0010. […] Final concentration of enzymes were 0.5 nM. Final concentration of substrate peptides was 1 uM.
The reactions were allowed to proceed at room temperature. Incubation time was three hours for human FAP, 0.5 hours for mouse FAP.
Terminated plates were analyzed using a microfluidic electrophoresis instrument (Caliper LabChip® 3000, Caliper Life Sciences/Perkin Elmer). A change in relative intensity of the peptide substrate and cleaved product was the parameter measured. Activity in each test sample was determined as the product to sum ratio (PSR):P/(S+P), where P is the peak height of the product, and S is the peak height of the substrate. Percent inhibition (Pinh) was determined using the following equation: Pinh=(PSR0% inh−PSRcompound)/(PSR0% inh−PSR100% inh)*100, in which: PSRcompound is the product/sum ratio in the presence of compound, PSR0% inh is the product/sum ratio in the absence of compound and the PSR100% inh is the product/sum ratio in the absence of the enzyme.
A word on the IC50: it is the concentration needed to halve the response being measured. “2,2′,2″-(10-(8-(1-((4-((2-((R)-2-boronopyrrolidin-1-yl)-2-oxoethyl)carbamoyl)quinolin-7-yl)oxy)-2-oxo-6,9,12-trioxa-3-azapentadecanamido)-39-carboxy-48-(4-isobutylphenyl)-2,9,37,45-tetraoxo-13,16,19,22,25,28,31,34-octaoxa-3,10,38,44-tetraazaoctatetracontyl)-1,4,7,10-tetraazacyclo-dodecane-1,4,7-triyl)triacetic acid [RTX-1357R]” came in with an IC50 of less than 0.1 nM.

Take `CCCC(=O)NCCCC[C@H](NC(=O)[C@H](CCCCNC(=S)Nc1ccc(CC2CN(CC(=O)O)CCN(CC(=O)O)CCN2CC(=O)O)cc1)NC(=O)CCOCCOCCOCCNC(=O)COc1ccc2c(C(=O)NCC(=O)N3CCC[C@H]3C#N)ccnc2c1)C(=O)O` (stereo partly shown) [RTX-1317S]: the IC50 lay within 0.1 to 0.5 nM.

On to `CCCCCC(=O)NCCCC[C@H](NC(=O)[C@H](CCCCNC(=S)Nc1ccc(CC2CN(CC(=O)O)CCN(CC(=O)O)CCN2CC(=O)O)cc1)NC(=O)CCOCCOCCOCCNC(=O)COc1ccc2c(C(=O)NCC(=O)N3CCC[C@H]3C#N)ccnc2c1)C(=O)O` (stereo partly shown) [RTX-1318S], for which the concentration for half-maximal inhibition (IC50) was less than 0.1 nM. With `CC(=O)NCCCC[C@H](NC(=O)[C@H](CCCCNC(=S)Nc1ccc(CC2CN(CC(=O)O)CCN(CC(=O)O)CCN2CC(=O)O)cc1)NC(=O)CCOCCOCCOCCNC(=O)COc1ccc2c(C(=O)NCC(=O)N3CCC[C@H]3B(O)O)ccnc2c1)C(=O)O` (stereo partly shown) [RTX-1319R], the IC50 fell in the range of 0.1 to 0.5 nM. Consider `CC(=O)NCCCC[C@H](NC(=O)[C@H](CCCCNC(=O)c1ccc(F)c(C#N)c1)NC(=O)CCOCCOCCOCCNC(=O)COc1ccc2c(C(=O)NCC(=O)N3CCC[C@H]3C#N)ccnc2c1)C(=O)O` [RTX-1324S, (S)-2-[(S)-2-(3-{2-[2-(2-{2-[4-({2-[(S)-2-Cyano-1-pyrrolidinyl]-2-oxoethylamino}carbonyl)-7-quinolyloxy]acetylamino}ethoxy)ethoxy]ethoxy}propionylamino)-6-(3-cyano-4-fluorobenzoylamino)hexanoylamino]-6-acetylaminohexanoic Acid], for which the IC50 is less than 0.1 nM. With `CC(=O)NCCCC[C@H](NC(=O)[C@H](CCCCNC(=O)c1ccc(F)c(C(F)(F)F)c1)NC(=O)CCOCCOCCOCCNC(=O)COc1ccc2c(C(=O)NCC(=O)N3CCC[C@H]3C#N)ccnc2c1)C(=O)O` [RTX-1325S], the half-maximal inhibitory concentration (IC50) lay in the range of 0.5 to 5 nM.

Molecule `COc1ccc2c(C(=O)NCC(=O)N3CCC[C@H]3C#N)ccnc2c1` [RTX-1326S, 7-Methoxy-quinoline-4-carboxylic Acid [2-((S)-2-cyano-pyrrolidin-1-yl)-2-oxo-ethyl]-amide] returned an IC50 of 0.5 to 5 nM. The same measure, in the same setting: the same measure for `CC(=O)NCCCC[C@H](NC(=O)[C@H](CCCCNC(=O)CN1CCN(CC(=O)O)CCN(CC(=O)O)CC1)NC(=O)CCOCCOCCOCCNC(=O)COc1ccc2c(C(=O)NCC(=O)N3CCC[C@H]3C#N)ccnc2c1)C(=O)O` [RTX-1339S]: 0.1 to 0.5 nM; for `CCCC(=O)NCCCC[C@H](NC(=O)[C@H](CCCCNC(=O)CN1CCN(CC(=O)O)CCN(CC(=O)O)CC1)NC(=O)CCOCCOCCOCCNC(=O)COc1ccc2c(C(=O)NCC(=O)N3CCC[C@H]3C#N)ccnc2c1)C(=O)O` [RTX-1340S]: 0.1 to 0.5 nM; for `CCCCCCCC(=O)NCCCC[C@H](NC(=O)[C@H](CCCCNC(=O)CN1CCN(CC(=O)O)CCN(CC(=O)O)CCN(CC(=O)O)CC1)NC(=O)CCOCCOCCOCCNC(=O)COc1ccc2c(C(=O)NCC(=O)N3CCC[C@H]3C#N)ccnc2c1)C(=O)O` [RTX-1350S]: less than 0.1 nM. The same measure, in the same setting: in the case of `CC(C)Cc1ccc(CCCC(=O)NCCCC[C@H](NC(=O)[C@H](CCCCNC(=O)CN2CCN(CC(=O)O)CCN(CC(=O)O)CCN(CC(=O)O)CC2)NC(=O)CCOCCOCCOCCNC(=O)COc2ccc3c(C(=O)NCC(=O)N4CCC[C@H]4C#N)ccnc3c2)C(=O)O)cc1` [RTX-1352S] it was less than 0.1 nM. Same read-out and setting: in the case of `CC(=O)NCCCC[C@H](NC(=O)[C@H](CCCCNC(=O)CN1CCN(CC(=O)O)CCN(CC(=O)O)CCN(CC(=O)O)CC1)NC(=O)CCOCCOCCOCCNC(=O)COc1ccc2c(C(=O)NCC(=O)N3CCC[C@H]3C#N)ccnc2c1)C(=O)O` [RTX-1353S] it was 0.1 to 0.5 nM; in that of `CC(C)Cc1ccc(CC(=O)NCCCC[C@H](NC(=O)[C@H](CCCCNC(=O)CN2CCN(CC(=O)O)CCN(CC(=O)O)CCN(CC(=O)O)CC2)NC(=O)CCOCCOCCOCCNC(=O)COc2ccc3c(C(=O)NCC(=O)N4CCC[C@H]4C#N)ccnc3c2)C(=O)O)cc1` [RTX-1354S], less than 0.1 nM; in that of `CCCCCCCC(=O)NCCCC[C@H](NC(=O)[C@H](CCCCNC(=O)CN1CCN(CC(=O)O)CCN(CC(=O)O)CCN(CC(=O)O)CC1)NC(=O)CCOCCOCCOCCNC(=O)COc1ccc2c(C(=O)NCC(=O)N3CCC[C@H]3B(O)O)ccnc2c1)C(=O)O` [RTX-1355R], 0.1 to 0.5 nM. With `CC(C)Cc1ccc(CCCC(=O)NCCCC[C@H](NC(=O)[C@H](CCCCNC(=O)CN2CCN(CC(=O)O)CCN(CC(=O)O)CCN(CC(=O)O)CC2)NC(=O)CCOCCOCCOCCNC(=O)COc2ccc3c(C(=O)NCC(=O)N4CCC[C@H]4B(O)O)ccnc3c2)C(=O)O)cc1` [RTX-1356R], the IC50 was in the range of 0.1 to 0.5 nM. `CC(C)Cc1ccc(CC(=O)NCCCC[C@H](NC(=O)[C@H](CCCCNC(=O)CN2CCN(CC(=O)O)CCN(CC(=O)O)CCN(CC(=O)O)CC2)NC(=O)CCOCCOCCOCCNC(=O)COc2ccc3c(C(=O)NCC(=O)N4CCC[C@H]4B(O)O)ccnc3c2)C(=O)O)cc1` [RTX-1359R, 2-[2-(3-{2-[2-(2-{2-[4-({2-[(R)-2-(1,2-dihydroxaboro)-1-pyrrolidinyl]-2-oxoethylamino}-carbonyl)-7-quinolyloxy]acetylamino}ethoxy)ethoxy]ethoxy}propionylamino)-6-{2-[4,7,10-tris(carb-oxymethyl)-1,4,7,10-tetraaza-1-cyclododecyl]acetylamino}hexanoylamino]-6-[2-(p-isobutylphenyl)-acetylamino]hexanoic Acid] returned an IC50 of less than 0.1 nM.

In the case of `CCCCCC(=O)NCCCC[C@H](NC(=O)[C@H](CCCCNC(=O)CN1CCN(CC(=O)O)CCN(CC(=O)O)CCN(CC(=O)O)CC1)NC(=O)CCOCCOCCOCCNC(=O)COc1ccc2c(C(=O)NCC(=O)N3CCC[C@H]3C#N)ccnc2c1)C(=O)O` [RTX-1360S], the IC50 is less than 0.1 nM.

In turn, `CCCCCC(=O)NCCCC[C@H](NC(=O)[C@H](CCCCNC(=O)CN1CCN(CC(=O)O)CCN(CC(=O)O)CCN(CC(=O)O)CC1)NC(=O)CCOCCOCCOCCNC(=O)COc1ccc2c(C(=O)NCC(=O)N3CCC[C@H]3B(O)O)ccnc2c1)C(=O)O` [RTX-1361R] returned an IC50 of less than 0.1 nM.

The molecule `CCCCCC(=O)NCCCC[C@H](NC(=O)[C@H](CCCCNC(=O)CN1CCN(CC(=O)O)CCN(CC(=O)O)CC1)NC(=O)CCOCCOCCOCCNC(=O)COc1ccc2c(C(=O)NCC(=O)N3CCC[C@H]3C#N)ccnc2c1)C(=O)O` [RTX-1363S, 2,2′-(7-((S)-17-(((S)-1-carboxy-5-hexanamidopentyl)carbamoyl)-1-((4-((2-((S)-2-cyanopyrrolidin-1-yl)-2-oxoethyl)carbamoyl)quinolin-7-yl)oxy)-2,15,23-trioxo-6,9,12-trioxa-3,16,22-triazatetracosan-24-yl)-1,4,7-triazonane-1,4-diyl)diacetic Acid] returned an IC50 of less than 0.1 nM. As for `CCCCCC(=O)NCCCC[C@H](NC(=O)[C@H](CCCCNC(=O)CN1CCN2CCN(CC1)CC(=O)[O][Cu][O]C(=O)C2)NC(=O)CCOCCOCCOCCNC(=O)COc1ccc2c(C(=O)NCC(=O)N3CCC[C@H]3C#N)ccnc2c1)C(=O)O` [RTX-1363S-Cu], the IC50 was less than 0.1 nM. The same measure, in the same setting: the same measure for `CC(C)Cc1ccc(CC(=O)NCCCC[C@H](NC(=O)[C@H](CCCCNC(=S)Nc2ccc(CCOc3cc(CN4CCOCCOCCN(Cc5cccc(C(=O)O)n5)CCOCCOCC4)nc(C(=O)O)c3)cc2)NC(=O)CCOCCOCCOCCNC(=O)COc2ccc3c(C(=O)NCC(=O)N4CCC[C@H]4B(O)O)ccnc3c2)C(=O)O)cc1` [RTX-1399R, 4-(4-(3-((S)-1-((4-((2-((R)-2-boronopyrrolidin-1-yl)-2-oxoethyl)carbamoyl)quinolin-7-yl)oxy)-17-(((S)-1-carboxy-5-(2-(4-isobutylphenyl)acetamido)pentyl)carbamoyl)-2,15-dioxo-6,9,12-trioxa-3,16-diazahenicosan-21-yl)thioureido)phenethoxy)-6-((16-((6-carboxypyridin-2-yl)methyl)-1,4,10,13-tetraoxa-7,16-diazacyclooctadecan-7-yl)methyl)picolinic acid]: 0.1 to 0.5 nM.
